Measured values as given in PubChem BioAssay AID2060502 (Molecular Pharmacology Branch, DTP, NCI, 2025).

System: 885724-159-R-J1-PDC complex spheroid viability
Assay: Anticancer human tumor 885724-159-R-J1-PDC patient-derived pancreatic adenocarcinoma cell line growth inhibition [GQUAD]
Conditions: for IC50: curve of first compound; for viability, T/C: stronger effect = lower value
Procedure, shortened: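 Multi-cell-type spheroids of tumor cells with HUVEC and mesenchymal stem cells, treated with drug combinations. Concentrations descend in half-log steps from near clinical Cmax, or from 10 microM where Cmax is unknown; viability read-out.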

[1] = second compound 0.0316 µM, first compound 0.0316 µM
[2] = second compound 0.0316 µM, first compound 0.1 µM
[3] = second compound 0.0316 µM, first compound 0.316 µM
[4] = second compound 0.0316 µM, first compound 1 µM
[5] = second compound 0.0316 µM, first compound 3.16 µM
[6] = second compound 0.0316 µM, first compound 10 µM
[7] = second compound 0.1 µM, first compound 0.0316 µM
[8] = second compound 0.1 µM, first compound 0.1 µM
[9] = second compound 0.1 µM, first compound 0.316 µM
[10] = second compound 0.1 µM, first compound 1 µM
[11] = second compound 0.1 µM, first compound 3.16 µM
[12] = second compound 0.1 µM, first compound 10 µM
[13] = second compound 0.316 µM, first compound 0.0316 µM
[14] = second compound 0.316 µM, first compound 0.1 µM
[15] = second compound 0.316 µM, first compound 0.316 µM
[16] = second compound 0.316 µM, first compound 1 µM
[17] = second compound 0.316 µM, first compound 3.16 µM
[18] = second compound 0.316 µM, first compound 10 µM
[19] = second compound 1 µM, first compound 0.0316 µM
[20] = second compound 1 µM, first compound 0.1 µM
[21] = second compound 1 µM, first compound 0.316 µM
[22] = second compound 1 µM, first compound 1 µM
[23] = second compound 1 µM, first compound 3.16 µM
[24] = second compound 1 µM, first compound 10 µM
[25] = second compound 3.16 µM, first compound 0.0316 µM
[26] = second compound 3.16 µM, first compound 0.1 µM
[27] = second compound 3.16 µM, first compound 0.316 µM
[28] = second compound 3.16 µM, first compound 1 µM
[29] = second compound 3.16 µM, first compound 3.16 µM
[30] = second compound 3.16 µM, first compound 10 µM
[31] = second compound 10 µM, first compound 0.0316 µM
[32] = second compound 10 µM, first compound 0.1 µM
[33] = second compound 10 µM, first compound 0.316 µM
[34] = second compound 10 µM, first compound 1 µM
[35] = second compound 10 µM, first compound 3.16 µM
[36] = second compound 10 µM, first compound 10 µM
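Note: spheroids exposed to agents for seven days before readout.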
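Throughout, for viability, T/C: percent of vehicle control viability where 100% = DMSO wells.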

Q: With COc1ncnc(C2CC2)c1-c1ncc2cnn(Cc3ccc(-c4nc(C(F)(F)F)cn4C(C)C)cc3)c2n1 + Cc1[nH]c2ccc(F)cc2c1-c1nc2c3cccnc3c3ncccc3c2[nH]1 as the compound, how does the IC50 (second compound 0.0316 µM) read?
A: > 10 µM

Q: And the IC50 (second compound 0.1 µM)?
A: > 10 µM

Q: What about the IC50 (second compound 0.316 µM) of the same compound?
A: > 10 µM

Q: What about the IC50 (second compound 1 µM) of the same compound?
A: > 10 µM

Q: And the IC50 (second compound 3.16 µM)?
A: < 0.0316 µM

Q: And the IC50 (second compound 10 µM)?
A: > 10 µM

Q: What about the viability, T/C [1] of the same compound?
A: 85.5%

Q: What about the viability, T/C [2] of the same compound?
A: 91.4%

Q: And the viability, T/C [3]?
A: 93.7%

Q: And the viability, T/C [4]?
A: 81.8%

Q: And the viability, T/C [5]?
A: 89.9%

Q: What about the viability, T/C [6] of the same compound?
A: 94%

Q: What about the viability, T/C [7] of the same compound?
A: 101%

Q: And the viability, T/C [8]?
A: 90%

Q: What about the viability, T/C [9] of the same compound?
A: 86.3%

Q: And the viability, T/C [10]?
A: 90.4%

Q: And the viability, T/C [11]?
A: 91.3%

Q: And the viability, T/C [12]?
A: 111%

Q: And the viability, T/C [13]?
A: 96.7%

Q: And the viability, T/C [14]?
A: 81.5%

Q: What about the viability, T/C [15] of the same compound?
A: 76.1%

Q: And the viability, T/C [16]?
A: 72.3%

Q: And the viability, T/C [17]?
A: 88%

Q: And the viability, T/C [18]?
A: 82.3%

Q: And the viability, T/C [19]?
A: 70.3%

Q: What about the viability, T/C [20] of the same compound?
A: 65.8%

Q: And the viability, T/C [21]?
A: 62.8%

Q: And the viability, T/C [22]?
A: 56.3%

Q: And the viability, T/C [23]?
A: 70.5%

Q: And the viability, T/C [24]?
A: 67.8%

Q: And the viability, T/C [25]?
A: 23.7%

Q: And the viability, T/C [26]?
A: 12.7%

Q: What about the viability, T/C [27] of the same compound?
A: 10.7%

Q: What about the viability, T/C [28] of the same compound?
A: 8.78%

Q: And the viability, T/C [29]?
A: 11.8%

Q: And the viability, T/C [30]?
A: 12.8%

Q: And the viability, T/C [31]?
A: 69.6%

Q: And the viability, T/C [32]?
A: 66%

Q: And the viability, T/C [33]?
A: 63.7%

Q: What about the viability, T/C [34] of the same compound?
A: 72.1%

Q: What about the viability, T/C [35] of the same compound?
A: 69.3%

Q: What about the viability, T/C [36] of the same compound?
A: 68.3%

Q: What does the source list for COc1cc(C2c3cc4c(cc3C(OC3OC5COC(C)OC5C(O)C3O)C3COC(=O)C23)OCO4)cc(OC)c1O (stereo not drawn) + Cc1[nH]c2ccc(F)cc2c1-c1nc2c3cccnc3c3ncccc3c2[nH]1?
A: IC50 (second compound 0.0316 µM): > 10 µM; IC50 (second compound 0.1 µM): > 10 µM; IC50 (second compound 0.316 µM): > 10 µM; IC50 (second compound 1 µM): > 10 µM; IC50 (second compound 3.16 µM): < 0.0316 µM; IC50 (second compound 10 µM): > 10 µM; viability, T/C [1]: 92.8%; viability, T/C [2]: 88.7%; viability, T/C [3]: 93.8%; viability, T/C [4]: 94.9%; viability, T/C [5]: 79.2%; viability, T/C [6]: 88.5%; viability, T/C [7]: 102%; viability, T/C [8]: 117%; viability, T/C [9]: 93.1%; viability, T/C [10]: 103%; viability, T/C [11]: 80.2%; viability, T/C [12]: 80.2%; viability, T/C [13]: 103%; viability, T/C [14]: 87.2%; viability, T/C [15]: 80.7%; viability, T/C [16]: 83.2%; viability, T/C [17]: 79.7%; viability, T/C [18]: 72.3%; viability, T/C [19]: 89.5%; viability, T/C [20]: 69.8%; viability, T/C [21]: 75%; viability, T/C [22]: 69.1%; viability, T/C [23]: 77.8%; viability, T/C [24]: 61%; viability, T/C [25]: 53.2%; viability, T/C [26]: 32.2%; viability, T/C [27]: 45.4%; viability, T/C [28]: 43.7%; viability, T/C [29]: 35.8%; viability, T/C [30]: 26.5%; viability, T/C [31]: 68.3%; viability, T/C [32]: 69.3%; viability, T/C [33]: 70.9%; viability, T/C [34]: 68%; viability, T/C [35]: 70.6%; viability, T/C [36]: 55.4%

Q: With CC[C@@]1(O)C(=O)OCc2c1cc1n(c2=O)Cc2cc3c(CN(C)C)c(O)ccc3nc2-1 + Cc1[nH]c2ccc(F)cc2c1-c1nc2c3cccnc3c3ncccc3c2[nH]1 as the compound, how does the IC50 (second compound 0.0316 µM) read?
A: > 0.316 µM

Q: And the IC50 (second compound 0.1 µM)?
A: > 0.316 µM

Q: And the IC50 (second compound 0.316 µM)?
A: > 0.316 µM

Q: What about the IC50 (second compound 1 µM) of the same compound?
A: > 0.316 µM

Q: What about the IC50 (second compound 3.16 µM) of the same compound?
A: < 0.000999 µM

Q: And the IC50 (second compound 10 µM)?
A: > 0.316 µM

Q: And the viability, T/C (second compound 0.0316 µM, first compound 0.000999 µM)?
A: 90.3%

Q: And the viability, T/C (second compound 0.0316 µM, first compound 0.00316 µM)?
A: 114%

Q: And the viability, T/C (second compound 0.0316 µM, first compound 0.00999 µM)?
A: 98.9%

Q: And the viability, T/C [1]?
A: 97.6%

Q: What about the viability, T/C (second compound 0.0316 µM, first compound 0.0999 µM) of the same compound?
A: 84.2%

Q: And the viability, T/C [3]?
A: 68.7%

Q: And the viability, T/C (second compound 0.1 µM, first compound 0.000999 µM)?
A: 98.9%

Q: And the viability, T/C (second compound 0.1 µM, first compound 0.00316 µM)?
A: 104%

Q: And the viability, T/C (second compound 0.1 µM, first compound 0.00999 µM)?
A: 98%

Q: What about the viability, T/C [7] of the same compound?
A: 93.6%

Q: And the viability, T/C (second compound 0.1 µM, first compound 0.0999 µM)?
A: 87.8%

Q: And the viability, T/C [9]?
A: 74.6%

Q: And the viability, T/C (second compound 0.316 µM, first compound 0.000999 µM)?
A: 85.5%

Q: What about the viability, T/C (second compound 0.316 µM, first compound 0.00316 µM) of the same compound?
A: 83.9%

Q: What about the viability, T/C (second compound 0.316 µM, first compound 0.00999 µM) of the same compound?
A: 96.7%

Q: And the viability, T/C [13]?
A: 78.2%

Q: What about the viability, T/C (second compound 0.316 µM, first compound 0.0999 µM) of the same compound?
A: 80.8%

Q: And the viability, T/C [15]?
A: 69.2%

Q: What about the viability, T/C (second compound 1 µM, first compound 0.000999 µM) of the same compound?
A: 80.8%

Q: What about the viability, T/C (second compound 1 µM, first compound 0.00316 µM) of the same compound?
A: 75.7%

Q: What about the viability, T/C (second compound 1 µM, first compound 0.00999 µM) of the same compound?
A: 67.7%

Q: What about the viability, T/C [19] of the same compound?
A: 75.5%

Q: And the viability, T/C (second compound 1 µM, first compound 0.0999 µM)?
A: 67%

Q: What about the viability, T/C [21] of the same compound?
A: 60.5%

Q: What about the viability, T/C (second compound 3.16 µM, first compound 0.000999 µM) of the same compound?
A: 42.8%

Q: And the viability, T/C (second compound 3.16 µM, first compound 0.00316 µM)?
A: 30.9%

Q: What about the viability, T/C (second compound 3.16 µM, first compound 0.00999 µM) of the same compound?
A: 35.1%

Q: And the viability, T/C [25]?
A: 34.2%

Q: What about the viability, T/C (second compound 3.16 µM, first compound 0.0999 µM) of the same compound?
A: 33.3%

Q: What about the viability, T/C [27] of the same compound?
A: 23.6%

Q: What about the viability, T/C (second compound 10 µM, first compound 0.000999 µM) of the same compound?
A: 64.1%

Q: What about the viability, T/C (second compound 10 µM, first compound 0.00316 µM) of the same compound?
A: 72.6%

Q: And the viability, T/C (second compound 10 µM, first compound 0.00999 µM)?
A: 70.2%

Q: What about the viability, T/C [31] of the same compound?
A: 68.3%

Q: What about the viability, T/C (second compound 10 µM, first compound 0.0999 µM) of the same compound?
A: 63.4%

Q: What about the viability, T/C [33] of the same compound?
A: 49.1%

Q: Which results are given for CC1COCCN1c1cc(C2(S(C)(=N)=O)CC2)nc(-c2ccnc3[nH]ccc23)n1 (stereo not drawn) + Cc1cnc(CNC(=O)c2c(=O)c3ccc(N4CCCN(C)CC4)nc3n3c2sc2ccccc23)cn1?
A: IC50 (second compound 0.0316 µM): > 10 µM; IC50 (second compound 0.1 µM): > 10 µM; IC50 (second compound 0.316 µM): > 10 µM; IC50 (second compound 1 µM): > 10 µM; IC50 (second compound 3.16 µM): > 10 µM; IC50 (second compound 10 µM): > 10 µM; viability, T/C [1]: 101%; viability, T/C [2]: 105%; viability, T/C [3]: 110%; viability, T/C [4]: 106%; viability, T/C [5]: 81.5%; viability, T/C [6]: 92.3%; viability, T/C [7]: 118%; viability, T/C [8]: 105%; viability, T/C [9]: 116%; viability, T/C [10]: 108%; viability, T/C [11]: 103%; viability, T/C [12]: 91.2%; viability, T/C [13]: 114%; viability, T/C [14]: 99%; viability, T/C [15]: 98.3%; viability, T/C [16]: 87.3%; viability, T/C [17]: 86%; viability, T/C [18]: 86.7%; viability, T/C [19]: 93.5%; viability, T/C [20]: 78.5%; viability, T/C [21]: 81.6%; viability, T/C [22]: 87.2%; viability, T/C [23]: 90.7%; viability, T/C [24]: 67.1%; viability, T/C [25]: 82%; viability, T/C [26]: 80.4%; viability, T/C [27]: 70.5%; viability, T/C [28]: 79.8%; viability, T/C [29]: 83%; viability, T/C [30]: 60.2%; viability, T/C [31]: 72.8%; viability, T/C [32]: 73.4%; viability, T/C [33]: 72.6%; viability, T/C [34]: 72.1%; viability, T/C [35]: 78%; viability, T/C [36]: 59.5%
